In patent publication US8574563B2 (Bristol-Myers Squibb Company, priority 2006, dated 2013):

test system: HCV 1b-377-neo replicon cells; experiment: HCV replicon assay, HCV 1b-377-neo replicon cells (1b FRET); assay type: cell-based, Hepatitis C virus genotype 1b; conditions: HCV 1b-377-neo replicon cells; HCV 1b genotype; read-out: EC50 range against HCV 1b (Table 2, Range)
Summary of the method: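 Compounds were tested in genotype 1b subgenomic replicon cells carrying a neomycin marker, alongside a matched replicon line with an NS5A Y2065H substitution that confers resistance to a reference NS5A inhibitor.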

How did the EC50 turn out when `CCN(CC)[C@@H](C(=O)N1CCC[C@H]1c1ncc(-c2ccc(-c3ccc(-c4cnc([C@@H]5CCCN5C(=O)C5(NC(=O)OC)CC5)[nH]4)cc3)cc2)[nH]1)c1ccccc1` [Example M33, methyl (1-(((2S)-2-(5-(4′-(2-((2S)-1-((2R)-2-(diethylamino)-2-phenylacetyl)-2-pyrrolidinyl)-1H-imidazol-5-yl)-4-biphenylyl)-1H-imidazol-2-yl)-1-pyrrolidinyl)carbonyl)cyclopropyl) carbamate] was run?
Its EC50 is 1 to 99 nM.

For `COC(=O)N[C@@H](C(=O)N1CCC[C@H]1c1ncc(-c2ccc(-c3ccc(-c4cnc([C@@H]5CCCN5C(=O)Cc5ccccn5)[nH]4)cc3)cc2)[nH]1)c1ccccc1` [Example 46, methyl ((1R)-2-oxo-1-phenyl-2-((2S)-2-(5-(4′-(2-((2S)-1-(2-pyridinylacetyl)-2-pyrrolidinyl)-1H-imidazol-5-yl)-4-biphenylyl)-1H-imidazol-2-yl)-1-pyrrolidinyl)ethyl)carbamate], which EC50 is on record?
Its EC50 is 0.001 to 0.999 nM.

same assay, conditions: Hepatitis C virus, HCV 1b-377-neo replicon cells; HCV 1b genotype; read-out: EC50 range against HCV 1b (Table 2, Range)

How did the EC50 turn out when `COC(=O)NCC(=O)N1CC2(CC2)C[C@H]1c1nc(-c2ccc(-c3ccc(-c4c[nH]c([C@@H]5CC6(CC6)CN5C(=O)CNC(=O)OC)n4)cc3)cc2)c[nH]1` [Example M146, methyl (2-((6S)-6-(4-(4′-(2-((6S)-5-(((methoxycarbonyl)amino)acetyl)-5-azaspiro[2.4]hept-6-yl)-1H-imidazol-4-yl)-4-biphenylyl)-1H-imidazol-2-yl)-5-azaspiro[2.4]hept-5-yl)-2-oxoethyl)carbamate] was run?
Its EC50 is 0.001 to 0.999 nM.

`CN(C)[C@@H](C(=O)N1CCC[C@H]1c1ncc(-c2ccc(-c3ccc(-c4cnc([C@@H]5CCCN5C(=O)[C@H]5CCCO5)[nH]4)cc3)cc2)[nH]1)c1ccccc1Cl` [Example 107-38, (1R)-1-(2-chloro-phenyl)-N,N-dimethyl-2-oxo-2-((2S)-2-(5-(4′-(2-((2S)-1-((2R)-tetrahydro-2-furanylcarbonyl)-2-pyrrolidinyl)-1H-imidazol-5-yl)-4-biphenylyl)-1H-imidazol-2-yl)-1-pyrrolidinyl) ethanamine] was tested. Which EC50 did it give?
Its EC50 is 0.001 to 0.999 nM.

With `CCCCOC(=O)N[C@@H](C)C(=O)N1CCC[C@H]1c1nc(-c2ccc(-c3ccc(-c4cnc([C@@H]5CCCN5C(=O)[C@H](C)NC(=O)OCCCC)[nH]4)cc3)cc2)c[nH]1` [Example F21, butyl ((1S)-2-((2S)-2-(4-(4′-(2-((2S)-1-(N-(butoxycarbonyl)-L-alanyl)-2-pyrrolidinyl)-1H-imidazol-5-yl)-4-biphenylyl)-1H-imidazol-2-yl)-1-pyrrolidinyl)-1-methyl-2-oxoethyl)carbamate] as the compound, how does the EC50 read?
Its EC50 is 100 to 999 nM.

For `O=C([C@H]1CCCO1)N1CCC[C@H]1c1ncc(-c2ccc(-c3ccc(-c4cnc([C@@H]5CCCN5C(=O)[C@H]5CCCO5)[nH]4)cc3)cc2)[nH]1` [Example 13, 5,5′-(4,4′-biphenyldiyl)bis(2-((2S)-1-((2R)-tetrahydro-2-furanylcarbonyl)-2-pyrrolidinyl)-1H-imidazole)], which EC50 is on record?
Its EC50 is 1 to 99 nM.

With `O=C([C@@H](c1ccccc1)N1CCCC1)N1CCC[C@H]1c1ncc(-c2ccc(-c3ccc(-c4cnc([C@@H]5CCCN5C(=O)[C@@H](c5ccccc5)N5CCCC5)[nH]4)cc3)cc2)[nH]1` [Example 17, 5,5′-(4,4′-biphenyldiyl)bis(2-((2S)-1-((2R)-2-phenyl-2-(1-pyrrolidinyl)acetyl)-2-pyrrolidinyl)-1H-imidazole)] as the compound, how does the EC50 read?
Its EC50 is 0.001 to 0.999 nM.

With `COC(=O)N[C@@H](C(=O)N1CCC[C@H]1c1ncc(-c2ccc(-c3ccc(-c4cnc([C@@H]5CCCN5C(=O)C5(O)CC5)[nH]4)cc3)cc2)[nH]1)c1ccccc1` [Example 60, methyl ((1R)-2-((2S)-2-(5-(4′-(2-((2S)-1-((1-hydroxycyclopropyl)carbonyl)-2-pyrrolidinyl)-1H-imidazol-5-yl)-4-biphenylyl)-1H-imidazol-2-yl)-1-pyrrolidinyl)-2-oxo-1-phenylethyl)carbamate] as the compound, how does the EC50 read?
The EC50 was 0.001 to 0.999 nM.

With `COC(=O)N[C@H](C(=O)N1CCC[C@H]1c1nc(-c2ccc(-c3ccc(-c4cnc([C@@H]5CCCN5C(=O)[C@@H](NC(=O)OC)C5CCOCC5)[nH]4)cc3)cc2)c[nH]1)C1CCOCC1` [Example F38, methyl ((1S)-2-((2S)-2-(4-(4′-(2-((2S)-1-((2S)-2-((methoxycarbonyl)amino)-2-(tetrahydro-2H-pyran-4-yl)acetyl)-2-pyrrolidinyl)-1H-imidazol-5-yl)-4-biphenylyl)-1H-imidazol-2-yl)-1-pyrrolidinyl)-2-oxo-1-(tetrahydro-2H-pyran-4-yl)ethyl)carbamate] as the compound, how does the EC50 read?
The EC50 was 0.001 to 0.999 nM.

How did the EC50 turn out when `Cc1cc(-c2cnc([C@@H]3CCCN3C(=O)[C@@H](c3ccccc3)N(C)C)[nH]2)ccc1-c1ccc(-c2cnc([C@@H]3CCCN3C(=O)[C@@H](c3ccccc3)N(C)C)[nH]2)cn1` [Example 136, (1R)-2-((2S)-2-(5-(6-(4-(2-((2S)-1-((2R)-2-(dimethylamino)-2-phenylacetyl)-2-pyrrolidinyl)-1H-imidazol-5-yl)-2-methylphenyl)-3-pyridinyl)-1H-imidazol-2-yl)-1-pyrrolidinyl)-N,N-dimethyl-2-oxo-1-phenylethanamine] was run?
Its EC50 is 0.001 to 0.999 nM.

For `COC(=O)N[C@H](C(=O)N1CC2(CC2)C[C@H]1c1ncc(-c2ccc(-c3ccc(-c4cnc([C@@H]5CC6(CC6)CN5C(=O)[C@@H](NC(=O)OC)C(C)C)[nH]4)cc3)cc2)[nH]1)C(C)C` [Example M145], which EC50 is on record?
Its EC50 is 0.001 to 0.999 nM.

For `COC(=O)N[C@@H](C(=O)N1CCC[C@H]1c1ncc(-c2ccc(-c3ccc(-c4cnc([C@@H]5CCCN5C(=O)Cc5nnn[nH]5)[nH]4)cc3)cc2)[nH]1)c1ccccc1` [Example 65, methyl ((1R)-2-oxo-1-phenyl-2-((2S)-2-(5-(4′-(2-((2S)-1-(1H-tetrazol-5-ylacetyl)-2-pyrrolidinyl)-1H-imidazol-5-yl)-4-biphenylyl)-1H-imidazol-2-yl)-1-pyrrolidinyl)ethyl)carbamate], which EC50 is on record?
Its EC50 is 1 to 99 nM.

For `COC(=O)N[C@@H](C)C(=O)N1CCC[C@H]1c1ncc(-c2ccc(-c3ccc(-c4cnc([C@@H]5CCCN5C(=O)[C@H](Cc5ccc(OCc6ccccc6)cc5)NC(=O)OC)[nH]4)cc3)cc2)[nH]1` [cj-107, methyl ((1S)-1-(4-(benzyloxy)benzyl)-2-((2S)-2-(5-(4′-(2-((2S)-1-(N-(methoxycarbonyl)-L-alanyl)-2-pyrrolidinyl)-1H-imidazol-5-yl)-4-biphenylyl)-1H-imidazol-2-yl)-1-pyrrolidinyl)-2-oxoethyl)carbamate], which EC50 is on record?
Its EC50 is 0.001 to 0.999 nM.

`COC(=O)N[C@](C)(C(=O)N1CCC[C@H]1c1nc(-c2ccc(-c3ccc(-c4cnc([C@@H]5CCCN5C(=O)[C@@](C)(NC(=O)OC)C(C)C)[nH]4)cc3)cc2)c[nH]1)C(C)C` [Example F37, methyl ((1S)-1-(((2S)-2-(4-(4′-(2-((2S)-1-((2S)-2-((methoxycarbonyl)amino)-2,3-dimethylbutanoyl)-2-pyrrolidinyl)-1H-imidazol-5-yl)-4-biphenylyl)-1H-imidazol-2-yl)-1-pyrrolidinyl)carbonyl)-1,2-dimethylpropyl)carbamate] was tested. Which EC50 did it give?
Its EC50 is 100 to 999 nM.

Which EC50 does the source give for `CCOC(=O)N[C@@H](C)C(=O)N1CCC[C@H]1c1ncc(-c2ccc(-c3ccc(-c4cnc([C@@H]5CCCN5C(=O)[C@H](C)NC(=O)OCC)[nH]4)cc3)cc2)[nH]1` [Example M5, ethyl ((1S)-2-((2S)-2-(5-(4′-(2-((2S)-1-(N-(ethoxycarbonyl)-L-alanyl)-2-pyrrolidinyl)-1H-imidazol-5-yl)-4-biphenylyl)-1H-imidazol-2-yl)-1-pyrrolidinyl)-1-methyl-2-oxoethyl)carbamate] here?
The EC50 was 1000 to 10000 nM.

Which EC50 does the source give for `COC(=O)N[C@@H](C(=O)N1CCC[C@H]1c1ncc(-c2ccc(-c3ccc(-c4[nH]c([C@@H]5CCCN5C(=O)[C@H](NC(=O)OC)c5ccccc5)nc4C(=O)OC)cc3)cc2)[nH]1)c1ccccc1` [Example J16, methyl 2-((2S)-l-((2R)-2-((methoxycarbonyl)amino)-2-phenylacetyl)-2-pyrrolidinyl)-5-(4′-(2-((2S)-1-((2R)-2-((methoxycarbonyl)amino)-2-phenylacetyl)-2-pyrrolidinyl)-1H-imidazol-5-yl)-4-biphenylyl)-1H-imidazole-4-carboxylate] here?
The EC50 was 0.001 to 0.999 nM.

With `COC(=O)N[C@@H](C)C(=O)N1CCC[C@H]1c1ncc(-c2ccc(-c3ccc(-c4cnc([C@@H]5CCCN5C(=O)[C@H](C)NC(=O)OC)[nH]4)c(F)c3)cc2)[nH]1` [Example D45, methyl ((1S)-2-((2S)-2-(5-(3′-fluoro-4′-(2-((2S)-1-(N-(methoxycarbonyl)-L-alanyl)-2-pyrrolidinyl)-1H-imidazol-5-yl)-4-biphenylyl)-1H-imidazol-2-yl)-1-pyrrolidinyl)-1-methyl-2-oxoethyl)carbamate] as the compound, how does the EC50 read?
The EC50 was 0.001 to 0.999 nM.

Which EC50 does the source give for `O=C(C(c1ccccc1)N1C2CCC1CC2)N1CCC[C@H]1c1ncc(-c2ccc(-c3ccc(-c4cnc([C@@H]5CCCN5C(=O)C(c5ccccc5)N5C6CCC5CC6)[nH]4)cc3)cc2)[nH]1` (stereo partly drawn) [Example M2, 7,7′-(4,4′-biphenyldiylbis(1H-imidazole-5,2-diyl(2S)-2,1-pyrrolidinediyl(2-oxo-1-phenyl-2,1-ethanediyl)))bis(7-azabicyclo[2.2.1]heptane)] here?
Its EC50 is 1 to 99 nM.

For `COC(=O)N[C@@H](C(=O)N[C@@H](C)c1ncc(-c2ccc(-c3ccc(-c4cnc([C@@H]5CCCN5C(=O)[C@H](NC(=O)OC)c5ccccc5)[nH]4)cn3)cc2)[nH]1)c1ccccc1` [Example 152j-12, methyl ((1R)-2-((2S)-2-(5-(6-(4-(2-((1S)-1-(((2R)-2-((methoxycarbonyl)amino)-2-phenylacetyl)amino)ethyl)-1H-imidazol-5-yl)phenyl)-3-pyridinyl)-1H-imidazol-2-yl)-1-pyrrolidinyl)-2-oxo-1-phenylethyl)carbamate], which EC50 is on record?
The EC50 was 0.001 to 0.999 nM.

For `CN(C)[C@@H](C(=O)N1CCC[C@H]1c1ncc(-c2cnc(-c3cnc(-c4cnc([C@@H]5CCCN5C(=O)[C@@H](c5ccccc5)N(C)C)[nH]4)cn3)cn2)[nH]1)c1ccccc1` [Example 153c-5, (1R,1′R)-2,2′-(2,2′-bipyrazine-5,5′-diylbis(1H-imidazole-5,2-diyl(2S)-2,1-pyrrolidinediyl))bis(N,N-dimethyl-2-oxo-1-phenylethanamine)], which EC50 is on record?
Its EC50 is 1 to 99 nM.
